The NIST ThermoML archive (doi:10.1021/je060271a)
Where “and” joins values, the source holds several entries; their conditions need not be identical. Equal entries are not always repeated. Numbers after ± are expanded uncertainties.

Conditions: 303.16 K, Liquid, Vibrating tube method

CCCCCC(=O)OCC(COC(=O)CCCCC)(COC(=O)CCCCC)COC(=O)CCCCC [pentaerythritol tetrahexanoate]
mass density (243.6 kPa): 988.4 ± 1.2 kg/m3
mass density (243.8 kPa): 988.7 ± 1.2 kg/m3
mass density (244.8 kPa): 988.5 ± 1.2 kg/m3 and 988.6 ± 1.2 kg/m3
mass density (245.2 kPa): 988.4 ± 1.2 kg/m3 and 988.6 ± 1.2 kg/m3
mass density (245.3 kPa): 988.5 ± 1.2 kg/m3
mass density (245.5 kPa): 988.5 ± 1.2 kg/m3
mass density (245.9 kPa): 988.5 ± 1.2 kg/m3 and 988.6 ± 1.2 kg/m3
mass density (246.2 kPa): 988.5 ± 1.2 kg/m3
mass density (246.6 kPa): 988.5 ± 1.2 kg/m3
mass density (246.7 kPa): 988.4 ± 1.2 kg/m3
mass density (247.3 kPa): 988.6 ± 1.2 kg/m3 and 988.5 ± 1.2 kg/m3
mass density (247.4 kPa): 988.4 ± 1.2 kg/m3
mass density (248.5 kPa): 988.5 ± 1.2 kg/m3
mass density (248.8 kPa): 988.5 ± 1.2 kg/m3
mass density (249.2 kPa): 988.4 ± 1.2 kg/m3
mass density (249.3 kPa): 988.6 ± 1.2 kg/m3
mass density (250.7 kPa): 988.5 ± 1.2 kg/m3
mass density (251.1 kPa): 988.4 ± 1.2 kg/m3
mass density (251.2 kPa): 988.6 ± 1.2 kg/m3
mass density (251.4 kPa): 988.5 ± 1.2 kg/m3
mass density (251.6 kPa): 988.5 ± 1.2 kg/m3
mass density (251.9 kPa): 988.5 ± 1.2 kg/m3
mass density (252.1 kPa): 988.5 ± 1.2 kg/m3
mass density (252.3 kPa): 988.5 ± 1.2 kg/m3
mass density (252.5 kPa): 988.6 ± 1.2 kg/m3
mass density (252.6 kPa): 988.4 ± 1.2 kg/m3
mass density (252.8 kPa): 988.6 ± 1.2 kg/m3
mass density (253 kPa): 988.4 ± 1.2 kg/m3
mass density (253.5 kPa): 988.5 ± 1.2 kg/m3
mass density (253.7 kPa): 988.4 ± 1.2 kg/m3
mass density (254 kPa): 988.5 ± 1.2 kg/m3
mass density (254.2 kPa): 988.5 ± 1.2 kg/m3
mass density (254.6 kPa): 988.4 ± 1.2 kg/m3
mass density (254.7 kPa): 988.5 ± 1.2 kg/m3
mass density (255.1 kPa): 988.6 ± 1.2 kg/m3
mass density (255.2 kPa): 988.6 ± 1.2 kg/m3
mass density (255.4 kPa): 988.5 ± 1.2 kg/m3
mass density (255.6 kPa): 988.5 ± 1.2 kg/m3
mass density (255.9 kPa): 988.5 ± 1.2 kg/m3
mass density (256.3 kPa): 988.5 ± 1.2 kg/m3
mass density (256.5 kPa): 988.5 ± 1.2 kg/m3
mass density (256.6 kPa): 988.5 ± 1.2 kg/m3
mass density (257 kPa): 988.6 ± 1.2 kg/m3 and 988.5 ± 1.2 kg/m3
mass density (257.3 kPa): 988.6 ± 1.2 kg/m3
mass density (257.5 kPa): 988.5 ± 1.2 kg/m3
mass density (257.8 kPa): 988.6 ± 1.2 kg/m3 and 988.5 ± 1.2 kg/m3
mass density (258 kPa): 988.5 ± 1.2 kg/m3
mass density (258.4 kPa): 988.4 ± 1.2 kg/m3
mass density (258.5 kPa): 988.5 ± 1.2 kg/m3
mass density (258.7 kPa): 988.5 ± 1.2 kg/m3
mass density (259.1 kPa): 988.7 ± 1.2 kg/m3
mass density (259.4 kPa): 988.6 ± 1.2 kg/m3 and 988.5 ± 1.2 kg/m3
mass density (259.6 kPa): 988.6 ± 1.2 kg/m3
mass density (259.8 kPa): 988.5 ± 1.2 kg/m3
mass density (260.1 kPa): 988.5 ± 1.2 kg/m3
mass density (260.3 kPa): 988.6 ± 1.2 kg/m3
mass density (260.4 kPa): 988.4 ± 1.2 kg/m3
mass density (260.8 kPa): 988.5 ± 1.2 kg/m3 and 988.4 ± 1.2 kg/m3
mass density (261.1 kPa): 988.5 ± 1.2 kg/m3
mass density (261.3 kPa): 988.6 ± 1.2 kg/m3
mass density (261.8 kPa): 988.5 ± 1.2 kg/m3
mass density (262.5 kPa): 988.4 ± 1.2 kg/m3 and 988.5 ± 1.2 kg/m3
mass density (262.7 kPa): 988.5 ± 1.2 kg/m3
mass density (263.1 kPa): 988.5 ± 1.2 kg/m3
mass density (263.2 kPa): 988.6 ± 1.2 kg/m3 and 988.5 ± 1.2 kg/m3
mass density (263.7 kPa): 988.5 ± 1.2 kg/m3
mass density (264.1 kPa): 988.5 ± 1.2 kg/m3
mass density (264.3 kPa): 988.5 ± 1.2 kg/m3
mass density (264.4 kPa): 988.6 ± 1.2 kg/m3 and 988.5 ± 1.2 kg/m3
mass density (265 kPa): 988.6 ± 1.2 kg/m3
mass density (265.1 kPa): 988.5 ± 1.2 kg/m3
mass density (265.3 kPa): 988.5 ± 1.2 kg/m3
mass density (265.7 kPa): 988.5 ± 1.2 kg/m3
mass density (266.2 kPa): 988.6 ± 1.2 kg/m3
mass density (266.3 kPa): 988.5 ± 1.2 kg/m3
mass density (266.4 kPa): 988.5 ± 1.2 kg/m3 and 988.6 ± 1.2 kg/m3
mass density (266.7 kPa): 988.5 ± 1.2 kg/m3 and 988.6 ± 1.2 kg/m3
mass density (266.9 kPa): 988.6 ± 1.2 kg/m3
mass density (267.1 kPa): 988.6 ± 1.2 kg/m3
mass density (267.4 kPa): 988.4 ± 1.2 kg/m3
mass density (267.7 kPa): 988.6 ± 1.2 kg/m3
mass density (267.9 kPa): 988.5 ± 1.2 kg/m3
mass density (268.3 kPa): 988.5 ± 1.2 kg/m3
mass density (268.6 kPa): 988.5 ± 1.2 kg/m3 and 988.4 ± 1.2 kg/m3
mass density (268.8 kPa): 988.5 ± 1.2 kg/m3
mass density (269 kPa): 988.4 ± 1.2 kg/m3
mass density (269.1 kPa): 988.5 ± 1.2 kg/m3
mass density (270 kPa): 988.5 ± 1.2 kg/m3
mass density (270.2 kPa): 988.5 ± 1.2 kg/m3
mass density (270.7 kPa): 988.6 ± 1.2 kg/m3
mass density (271 kPa): 988.6 ± 1.2 kg/m3
mass density (271.2 kPa): 988.5 ± 1.2 kg/m3
mass density (271.4 kPa): 988.6 ± 1.2 kg/m3
mass density (271.6 kPa): 988.6 ± 1.2 kg/m3
mass density (272.1 kPa): 988.6 ± 1.2 kg/m3 and 988.5 ± 1.2 kg/m3
mass density (272.4 kPa): 988.6 ± 1.2 kg/m3
mass density (274.2 kPa): 988.6 ± 1.2 kg/m3
mass density (274.7 kPa): 988.6 ± 1.2 kg/m3 and 988.5 ± 1.2 kg/m3
mass density (275 kPa): 988.5 ± 1.2 kg/m3
mass density (275.2 kPa): 988.5 ± 1.2 kg/m3
mass density (275.6 kPa): 988.5 ± 1.2 kg/m3
mass density (275.7 kPa): 988.6 ± 1.2 kg/m3
mass density (275.9 kPa): 988.5 ± 1.2 kg/m3
mass density (276.1 kPa): 988.4 ± 1.2 kg/m3
mass density (276.4 kPa): 988.6 ± 1.2 kg/m3
mass density (276.8 kPa): 988.4 ± 1.2 kg/m3 and 988.5 ± 1.2 kg/m3
mass density (277.3 kPa): 988.5 ± 1.2 kg/m3
mass density (277.5 kPa): 988.5 ± 1.2 kg/m3
mass density (277.6 kPa): 988.5 ± 1.2 kg/m3
mass density (278 kPa): 988.6 ± 1.2 kg/m3
mass density (278.2 kPa): 988.5 ± 1.2 kg/m3
mass density (278.3 kPa): 988.6 ± 1.2 kg/m3
mass density (279 kPa): 988.4 ± 1.2 kg/m3 and 988.5 ± 1.2 kg/m3
mass density (279.2 kPa): 988.5 ± 1.2 kg/m3
mass density (279.5 kPa): 988.6 ± 1.2 kg/m3
mass density (279.9 kPa): 988.6 ± 1.2 kg/m3
mass density (280.2 kPa): 988.5 ± 1.2 kg/m3
mass density (280.6 kPa): 988.5 ± 1.2 kg/m3
mass density (280.8 kPa): 988.6 ± 1.2 kg/m3
mass density (280.9 kPa): 988.6 ± 1.2 kg/m3
mass density (281.3 kPa): 988.5 ± 1.2 kg/m3
mass density (281.8 kPa): 988.5 ± 1.2 kg/m3
mass density (282 kPa): 988.6 ± 1.2 kg/m3
mass density (282.3 kPa): 988.6 ± 1.2 kg/m3
mass density (282.5 kPa): 988.6 ± 1.2 kg/m3
mass density (282.7 kPa): 988.5 ± 1.2 kg/m3
mass density (283.2 kPa): 988.5 ± 1.2 kg/m3
mass density (283.5 kPa): 988.6 ± 1.2 kg/m3
mass density (283.7 kPa): 988.5 ± 1.2 kg/m3
mass density (283.9 kPa): 988.6 ± 1.2 kg/m3
mass density (284.9 kPa): 988.6 ± 1.2 kg/m3
mass density (285.3 kPa): 988.4 ± 1.2 kg/m3
mass density (285.6 kPa): 988.6 ± 1.2 kg/m3
mass density (286.1 kPa): 988.5 ± 1.2 kg/m3 and 988.6 ± 1.2 kg/m3
mass density (286.5 kPa): 988.6 ± 1.2 kg/m3
mass density (287 kPa): 988.6 ± 1.2 kg/m3
mass density (287.2 kPa): 988.6 ± 1.2 kg/m3
mass density (287.5 kPa): 988.5 ± 1.2 kg/m3
mass density (287.9 kPa): 988.5 ± 1.2 kg/m3
mass density (288.6 kPa): 988.5 ± 1.2 kg/m3
mass density (289.8 kPa): 988.5 ± 1.2 kg/m3
mass density (290.7 kPa): 988.5 ± 1.2 kg/m3
mass density (291 kPa): 988.6 ± 1.2 kg/m3
mass density (291.5 kPa): 988.5 ± 1.2 kg/m3
mass density (291.7 kPa): 988.6 ± 1.2 kg/m3
